From patent US7745222B2, “Amyloid binding assays” (priority 2006, dated 2010)

Assays:
[1] = test system: soluble oligomeric A-beta (human beta-amyloid 1-42); assay type: binding; conditions: for binding to soluble oligomeric A-beta: A-beta species on Sprague-Dawley naive rat brain section (hippocampus), fluorescence imaging, FIG. 2-3
Procedure: (§1) In one embodiment, sections of Sprauge-Dawley naïve rat brain (Taconic) 10 microns in thickness were fixed with 10% formalin in phosphate buffered saline (PBS).
Soluble A-beta oligomer formation. 1 mg of human beta-amyloid 1-42 (H-5642, Bachem) and 500 uL of 1,1,1,3,3,3 hexafluoro-2-propanol (HFIP) (Aldrich) were chilled in separate bottles on ice for 30 minutes. Cold beta-amyloid 1-42 was solubilized with cold HFIP. The mixture was incubated for 1 hr at room temperature until it turned clear. The resulting solution was then dried to a film under vacuum. The film was dissolved again in cold HFIP and incubated another 1 hr at room temperature. The resulting solution was separated into aliquots in several microcentrifuge tubes. HFIP was removed under vacuum, and the films were stored at −20° C. until use. To prepare soluble oligomer, the film was dissolved in appropriate amount of dry DMSO (Sigma), and Ham's F12 media (Biosource) or PBS (Sigma, D8537) was added and incubated at 4° C. for 24 hours (final concentration of 200 uM or 0.9 mg/mL beta-amyloid in 2% DMSO).
(§2) The slides were washed with PBS three times then incubated with blocking buffer consisting of 10% normal goat serum in 3% BSA in PBS.
(§3) For the sandwich assay approach 100 μL of 1/250th dilution of anti-A-beta antibody, (Signet) was applied to the tissue. The tissue was then incubated for 1.5 hours at room temperature, or in an alternative approach, for 45 minutes at 37° C. Next, a 1/100th dilution of the secondary antibody Alexa Flour 594-goat antimouse IgG (Molecular Probes) was prepared in PBS and 100 μl was applied to the slides, which were then incubated at room temperature for 1.5 hours. […]
(§4) Microscopic examination was performed using a Leica (Leica Microsystems Inc, Bannockburn Ill.) wide-field fluorescence microscope.
(§5) The fluorescent images were quantified by calculating the sum of pixel intensity of the immunofluorescence for each amyloid species. […]

[2] = test system: A-beta fibrils (human A-beta 1-40); assay type: binding; conditions: A-beta fibrils on rat brain section; fluorescence imaging; FIG. 4-5
Procedure: as §1
The clear film of A-beta 1-40 was diluted with distilled water to achieve a 6-mg/mL concentration. […] The clear solution was diluted to 1 mg/mL with PBS, pH 7.4 to obtain a final concentration of 1 mg/mL A-beta 1-40 then incubated at 37° C. on an orbital shaker at 200 RPM for 4 days.
as §2, §3, §4, §5

| SMILES | binding to soluble oligomeric A-beta [1] | preferential binding, soluble A-beta relative to insoluble A-beta ([1]; stated as validated property of the binder) | binding to A-beta fibrils [2] |
| --- | --- | --- | --- |
| O=Cc1ccc(-c2oc3ccccc3c2CO)o1 [68B-3] | bound | preferential binder for soluble A-beta | bound |
| Cc1ccc2c(c1)sc(-c1ccc(N(C)C)cc1)[n+]2C.[Cl-] [Thioflavin T] | bound |  | bound |
